{"source": "the supplement of paper PMC10307832", "experiment_in_all_cases": "relative viability (nuclei count vs DMSO), 5 days (fraction); higher = more cells survive", "key": {"[1]": {"tested_on": "NCI-H1975", "summary_of_the_method": "(§1)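 For relative viability, nuclei counts in treated wells were divided by those in vehicle wells. Lung cancer cell lines had been pin-tool dosed in 1536-well plates the day after seeding and cultured for 5 days, then fixed and stained in one step (final 0.05% Triton X-100, 1% formaldehyde, 1 ug/ml Hoechst) and imaged at 4×. Doses were one drug alone or a fixed anchor-drug dose plus five library-drug doses (not always all listed) in √10 steps, and values are duplicate-plate medians.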"}, "[2]": {"tested_on": "UMC-11", "summary_of_the_method": "as §1"}, "[3]": {"tested_on": "NCI-H2009", "summary_of_the_method": "as §1"}, "[4]": {"tested_on": "NCI-H2170", "summary_of_the_method": "as §1"}, "[5]": {"tested_on": "H3255", "summary_of_the_method": "as §1"}, "[6]": {"tested_on": "SW 1573", "summary_of_the_method": "as §1"}, "[7]": {"tested_on": "LOU-NH91", "summary_of_the_method": "as §1"}, "[8]": {"tested_on": "HARA", "summary_of_the_method": "as §1"}, "[9]": {"tested_on": "NCI-H2087", "summary_of_the_method": "as §1"}, "[10]": {"tested_on": "SW 900", "summary_of_the_method": "as §1"}, "[11]": {"tested_on": "NCI-H727", "summary_of_the_method": "as §1"}, "[12]": {"tested_on": "NCI-H23", "summary_of_the_method": "as §1"}, "[13]": {"tested_on": "PC-3 [JPC-3]", "summary_of_the_method": "as §1"}, "[14]": {"tested_on": "NCI-H2023", "summary_of_the_method": "as §1"}, "[15]": {"tested_on": "LC-2-ad", "summary_of_the_method": "as §1"}, "[16]": {"tested_on": "NCI-H2228", "summary_of_the_method": "as §1"}, "[17]": {"tested_on": "NCI-H1650", "summary_of_the_method": "as §1"}, "[18]": {"tested_on": "EPLC-272H", "summary_of_the_method": "as §1"}, "[19]": {"tested_on": "NCI-H838", "summary_of_the_method": "as §1"}, "[20]": {"tested_on": "NCI-H441", "summary_of_the_method": "as §1"}, "[21]": {"tested_on": "NCI-H2085", "summary_of_the_method": "as §1"}, "[22]": {"tested_on": "NCI-H1651", "summary_of_the_method": "as §1"}, "[23]": {"tested_on": "NCI-H650", "summary_of_the_method": "as §1"}}, "data": [{"smiles": "CN1CCN(CCOc2cc(OC3CCOCC3)c3c(Nc4c(Cl)ccc5c4OCO5)ncnc3c2)CC1", "note": "[Saracatinib] + COc1cc2c(Oc3ccc(NC(=O)C4(C(=O)Nc5ccc(F)cc5)CC4)cc3F)ccnc2cc1OCCCN1CCOCC1 [Foretinib] (partner 0.25 µM)", "values": [{"measurement": "relative viability", "setting": "[1]; first compound 0.02 µM", "value": 0.956}, {"measurement": "relative viability", "setting": "[1]; first compound 0.2 µM", "value": 0.85}, {"measurement": "relative viability", "setting": "[1]; first compound 0.6325 µM", "value": 0.96}, {"measurement": "relative viability", "setting": "[1]; first compound 2 µM", "value": 0.631}, {"measurement": "relative viability", "setting": "[2]; first compound 0.02 µM", "value": 0.977}, {"measurement": "relative viability", "setting": "[2]; first compound 0.6325 µM", "value": 0.982}, {"measurement": "relative viability", "setting": "[2]; first compound 2 µM", "value": 0.734}, {"measurement": "relative viability", "setting": "[3]; first compound 0.02 µM", "value": 1.22}, {"measurement": "relative viability", "setting": "[3]; first compound 0.2 µM", "value": 1.14}, {"measurement": "relative viability", "setting": "[3]; first compound 0.6325 µM", "value": 0.951}, {"measurement": "relative viability", "setting": "[3]; first compound 2 µM", "value": 1.03}, {"measurement": "relative viability", "setting": "[4]; first compound 0.02 µM", "value": 0.989}, {"measurement": "relative viability", "setting": "[4]; first compound 0.2 µM", "value": 0.705}, {"measurement": "relative viability", "setting": "[4]; first compound 0.6325 µM", "value": 1.03}, {"measurement": "relative viability", "setting": "[4]; first compound 2 µM", "value": 0.872}, {"measurement": "relative viability", "setting": "[5]; first compound 0.02 µM", "value": 0.97}, {"measurement": "relative viability", "setting": "[5]; first compound 0.2 µM", "value": 0.749}, {"measurement": "relative viability", "setting": "[5]; first compound 0.6325 µM", "value": 0.987}, {"measurement": "relative viability", "setting": "[5]; first compound 2 µM", "value": 0.3}, {"measurement": "relative viability", "setting": "[6]; first compound 0.02 µM", "value": 0.895}, {"measurement": "relative viability", "setting": "[6]; first compound 0.2 µM", "value": 0.711}, {"measurement": "relative viability", "setting": "[6]; first compound 0.6325 µM", "value": 1.14}, {"measurement": "relative viability", "setting": "[6]; first compound 2 µM", "value": 0.792}, {"measurement": "relative viability", "setting": "[7]; first compound 0.02 µM", "value": 0.867}, {"measurement": "relative viability", "setting": "[7]; first compound 0.2 µM", "value": 0.661}, {"measurement": "relative viability", "setting": "[7]; first compound 0.6325 µM", "value": 0.609}, {"measurement": "relative viability", "setting": "[7]; first compound 2 µM", "value": 0.488}, {"measurement": "relative viability", "setting": "[8]; first compound 0.02 µM", "value": 0.873}, {"measurement": "relative viability", "setting": "[8]; first compound 0.2 µM", "value": 0.751}, {"measurement": "relative viability", "setting": "[8]; first compound 0.6325 µM", "value": 0.739}, {"measurement": "relative viability", "setting": "[8]; first compound 2 µM", "value": 0.368}, {"measurement": "relative viability", "setting": "[9]; first compound 0.02 µM", "value": 1.07}, {"measurement": "relative viability", "setting": "[9]; first compound 0.2 µM", "value": 0.874}, {"measurement": "relative viability", "setting": "[9]; first compound 0.6325 µM", "value": 1.1}, {"measurement": "relative viability", "setting": "[9]; first compound 2 µM", "value": 1.07}, {"measurement": "relative viability", "setting": "[10]; first compound 0.02 µM", "value": 0.78}, {"measurement": "relative viability", "setting": "[10]; first compound 0.2 µM", "value": 0.737}, {"measurement": "relative viability", "setting": "[10]; first compound 0.6325 µM", "value": 0.919}, {"measurement": "relative viability", "setting": "[10]; first compound 2 µM", "value": 0.776}, {"measurement": "relative viability", "setting": "[11]; first compound 0.02 µM", "value": 0.814}, {"measurement": "relative viability", "setting": "[11]; first compound 0.2 µM", "value": 1.04}, {"measurement": "relative viability", "setting": "[11]; first compound 0.6325 µM", "value": 0.923}, {"measurement": "relative viability", "setting": "[11]; first compound 2 µM", "value": 0.553}, {"measurement": "relative viability", "setting": "[12]; first compound 0.02 µM", "value": 0.825}, {"measurement": "relative viability", "setting": "[12]; first compound 0.2 µM", "value": 0.815}, {"measurement": "relative viability", "setting": "[12]; first compound 0.6325 µM", "value": 1}, {"measurement": "relative viability", "setting": "[12]; first compound 2 µM", "value": 0.545}, {"measurement": "relative viability", "setting": "[13]; first compound 0.02 µM", "value": 1.04}, {"measurement": "relative viability", "setting": "[13]; first compound 0.2 µM", "value": 0.889}, {"measurement": "relative viability", "setting": "[13]; first compound 0.6325 µM", "value": 0.693}, {"measurement": "relative viability", "setting": "[13]; first compound 2 µM", "value": 0.396}, {"measurement": "relative viability", "setting": "[14]; first compound 0.02 µM", "value": 0.953}, {"measurement": "relative viability", "setting": "[14]; first compound 0.2 µM", "value": 0.873}, {"measurement": "relative viability", "setting": "[14]; first compound 0.6325 µM", "value": 0.656}, {"measurement": "relative viability", "setting": "[14]; first compound 2 µM", "value": 0.531}, {"measurement": "relative viability", "setting": "[15]; first compound 0.02 µM", "value": 0.85}, {"measurement": "relative viability", "setting": "[15]; first compound 0.2 µM", "value": 0.812}, {"measurement": "relative viability", "setting": "[15]; first compound 0.6325 µM", "value": 0.934}, {"measurement": "relative viability", "setting": "[15]; first compound 2 µM", "value": 0.658}, {"measurement": "relative viability", "setting": "[16]; first compound 0.02 µM", "value": 0.765}, {"measurement": "relative viability", "setting": "[16]; first compound 0.2 µM", "value": 0.733}, {"measurement": "relative viability", "setting": "[16]; first compound 0.6325 µM", "value": 0.873}, {"measurement": "relative viability", "setting": "[16]; first compound 2 µM", "value": 0.591}, {"measurement": "relative viability", "setting": "[17]; first compound 0.02 µM", "value": 0.948}, {"measurement": "relative viability", "setting": "[17]; first compound 0.2 µM", "value": 0.775}, {"measurement": "relative viability", "setting": "[17]; first compound 0.6325 µM", "value": 0.46}, {"measurement": "relative viability", "setting": "[17]; first compound 2 µM", "value": 0.456}, {"measurement": "relative viability", "setting": "[18]; first compound 0.02 µM", "value": 0.403}, {"measurement": "relative viability", "setting": "[18]; first compound 0.2 µM", "value": 0.73}, {"measurement": "relative viability", "setting": "[18]; first compound 0.6325 µM", "value": 0.646}, {"measurement": "relative viability", "setting": "[18]; first compound 2 µM", "value": 0.435}, {"measurement": "relative viability", "setting": "[19]; first compound 0.02 µM", "value": 1.05}, {"measurement": "relative viability", "setting": "[19]; first compound 0.2 µM", "value": 0.908}, {"measurement": "relative viability", "setting": "[19]; first compound 0.6325 µM", "value": 0.938}, {"measurement": "relative viability", "setting": "[19]; first compound 2 µM", "value": 0.916}, {"measurement": "relative viability", "setting": "[20]; first compound 0.02 µM", "value": 1.04}, {"measurement": "relative viability", "setting": "[20]; first compound 0.2 µM", "value": 0.985}, {"measurement": "relative viability", "setting": "[20]; first compound 0.6325 µM", "value": 1.08}, {"measurement": "relative viability", "setting": "[20]; first compound 2 µM", "value": 1.13}, {"measurement": "relative viability", "setting": "[21]; first compound 0.02 µM", "value": 0.986}, {"measurement": "relative viability", "setting": "[21]; first compound 0.2 µM", "value": 0.839}, {"measurement": "relative viability", "setting": "[21]; first compound 0.6325 µM", "value": 0.751}, {"measurement": "relative viability", "setting": "[21]; first compound 2 µM", "value": 0.668}, {"measurement": "relative viability", "setting": "[22]; first compound 0.02 µM", "value": 0.844}, {"measurement": "relative viability", "setting": "[22]; first compound 0.2 µM", "value": 0.561}, {"measurement": "relative viability", "setting": "[22]; first compound 0.6325 µM", "value": 0.908}, {"measurement": "relative viability", "setting": "[22]; first compound 2 µM", "value": 0.657}, {"measurement": "relative viability", "setting": "[23]; first compound 0.02 µM", "value": 0.996}, {"measurement": "relative viability", "setting": "[23]; first compound 0.2 µM", "value": 0.922}, {"measurement": "relative viability", "setting": "[23]; first compound 0.6325 µM", "value": 1.03}, {"measurement": "relative viability", "setting": "[23]; first compound 2 µM", "value": 1.03}]}]}
